According to ChEMBL document CHEMBL1201862, “PubChem BioAssay data set” (2004):
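Step 1: Grow cells in 96-well plates. Step 2: Expose to compound for 48 hours at 5 concentrations. Step 3: Interpolate endpoints linearly; if unreached, use highest concentration. The concentration for 50% growth inhibition is given as GI50.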 The source made the active and inactive calls. No stated cut-off is given here; in the data, active = GI50 up to about 1.1 µM and inactive = higher.

Key:
Experiment in all cases: DTP human tumour cell line panel, 48 h
RXF 393 = system: RXF 393
HOP-62 = system: HOP-62
OVCAR-5 = system: OVCAR-5
SK-OV-3 = system: SK-OV-3
CAKI-1 = system: CAKI-1
MDA-MB-435 = system: MDA-MB-435
IGROV-1 = system: IGROV-1
SK-MEL-28 = system: SK-MEL-28
U-251 = system: U-251
Malme-3M = system: Malme-3M
Hs-578T = system: Hs-578T
SF-268 = system: SF-268
CCRF-CEM = system: CCRF-CEM
TK-10 = system: TK-10
ACHN = system: ACHN
M14 = system: M14
RPMI-8226 = system: RPMI-8226
SF-295 = system: SF-295
OVCAR-8 = system: OVCAR-8
HCT-15 = system: HCT-15

| SMILES | GI50 (RXF 393) | GI50 (HOP-62) | GI50 (OVCAR-5) | GI50 (SK-OV-3) | GI50 (CAKI-1) | GI50 (MDA-MB-435) | GI50 (IGROV-1) | GI50 (SK-MEL-28) | GI50 (U-251) | GI50 (Malme-3M) | GI50 (Hs-578T) | GI50 (SF-268) | GI50 (CCRF-CEM) | GI50 (TK-10) | GI50 (ACHN) | GI50 (M14) | GI50 (RPMI-8226) | GI50 (SF-295) | GI50 (OVCAR-8) | GI50 (HCT-15) [µM] |
| --- | --- | --- | --- | --- | --- | --- | --- | --- | --- | --- | --- | --- | --- | --- | --- | --- | --- | --- | --- | --- |
| C=C(Cl)C(C)(Cl)CCC(Br)C(C)(C)Cl (stereo unspecified) | 13.9 µM (inactive) | 22 µM (inactive) | 21.5 µM (inactive) | 12.7 µM (inactive) | 25.4 µM (inactive) | 19.4 µM (inactive) | 28.8 µM (inactive) | 21.2 µM (inactive) | 15.9 µM (inactive) | 17.1 µM (inactive) | 21.2 µM (inactive) | 33.2 µM (inactive) | 19.4 µM (inactive) | > 100 µM (inactive) | 17.5 µM (inactive) | 20 µM (inactive) | 13.2 µM (inactive) | 29.1 µM (inactive) |  |  |
| COc1cc(/N=N/N(C)C)c(C(C)c2c3cc(OC)c(OC)cc3cc[n+]2C)cc1OC (stereo unspecified) | 17.6 µM (inactive) | 49.7 µM (inactive) | > 100 µM (inactive) | > 100 µM (inactive) | > 100 µM (inactive) | 40.7 µM (inactive) | 36.9 µM (inactive) |  | 38.6 µM (inactive) | 34.4 µM (inactive) | 63.5 µM (inactive) | 31.3 µM (inactive) | 37.3 µM (inactive) | 31.6 µM (inactive) | > 100 µM (inactive) | 86.3 µM (inactive) | 7.76 µM (inactive) | > 100 µM (inactive) | 39.1 µM (inactive) | > 100 |
| COc1ccc2c(c1[N+](=O)[O-])CC[C@@H]1[C@@H]2CC[C@]2(C)C(=O)CC[C@@H]12 | > 25 µM (inactive) | > 6.71 µM (inactive) | > 25 µM (inactive) | 7.41 µM (inactive) | > 25 µM (inactive) | > 25 µM (inactive) | > 18 µM (inactive) | 20.7 µM (inactive) | > 25 µM (inactive) | 17.2 µM (inactive) | 17.1 µM (inactive) | > 25 µM (inactive) | 9.06 µM (inactive) | > 25 µM (inactive) | > 25 µM (inactive) | > 25 µM (inactive) | > 25 µM (inactive) | > 25 µM (inactive) | > 25 µM (inactive) | > 25 |
| CN(C)CCCNc1cnc2cc3ccccc3cc2n1 | 21.6 µM (inactive) | 26.2 µM (inactive) | 18.6 µM (inactive) | 55.1 µM (inactive) | 22.4 µM (inactive) | 24.5 µM (inactive) | 13.9 µM (inactive) | 22.6 µM (inactive) | 36.5 µM (inactive) | 14.1 µM (inactive) | 32.1 µM (inactive) | 23.8 µM (inactive) | 42 µM (inactive) | 27 µM (inactive) | 31.2 µM (inactive) | 21.4 µM (inactive) | 33.3 µM (inactive) | 20.7 µM (inactive) | 19.6 µM (inactive) | 18.4 |
| COc1ccc(N2C(=O)CSC2c2cc3cc(Br)ccc3nc2Cl)cc1 (stereo unspecified) | > 50 µM (inactive) | > 50 µM (inactive) | > 50 µM (inactive) | > 50 µM (inactive) | 27.5 µM (inactive) | 23.7 µM (inactive) | > 50 µM (inactive) | > 50 µM (inactive) |  | > 50 µM (inactive) | > 50 µM (inactive) | > 50 µM (inactive) | 31.6 µM (inactive) | > 50 µM (inactive) | 19 µM (inactive) | 38.5 µM (inactive) | 41.8 µM (inactive) | 19.9 µM (inactive) | > 50 µM (inactive) | 31.5 |
| CC1=[N+](C)CCN1C | > 100 µM (inactive) | > 100 µM (inactive) | > 100 µM (inactive) | > 100 µM (inactive) | > 100 µM (inactive) | > 100 µM (inactive) | > 100 µM (inactive) | > 100 µM (inactive) | > 100 µM (inactive) | > 100 µM (inactive) | > 100 µM (inactive) | > 100 µM (inactive) | > 100 µM (inactive) | > 100 µM (inactive) | > 100 µM (inactive) | > 100 µM (inactive) | > 100 µM (inactive) | > 100 µM (inactive) | > 100 µM (inactive) | > 100 |
| CCOP(=O)(OCC)C(Nc1ccc(F)cc1)c1ccccc1 (stereo unspecified) | > 100 µM (inactive) | > 100 µM (inactive) | > 100 µM (inactive) | > 100 µM (inactive) | > 100 µM (inactive) | > 100 µM (inactive) | > 100 µM (inactive) | > 100 µM (inactive) | > 100 µM (inactive) | > 100 µM (inactive) | > 100 µM (inactive) | > 100 µM (inactive) | > 100 µM (inactive) | > 100 µM (inactive) | > 100 µM (inactive) | > 100 µM (inactive) | > 100 µM (inactive) | > 100 µM (inactive) | > 100 µM (inactive) | > 100 |
| COc1ccc(OC)c(C2CCc3cnc4nc(N)nc(N)c4c3C2)c1 (stereo unspecified) | 33.6 µM (inactive) | > 100 µM (inactive) | > 100 µM (inactive) | > 100 µM (inactive) | > 100 µM (inactive) | 87.1 µM (inactive) | 56 µM (inactive) | > 100 µM (inactive) | 48.8 µM (inactive) | > 100 µM (inactive) | > 100 µM (inactive) | > 100 µM (inactive) | > 100 µM (inactive) | > 100 µM (inactive) | > 100 µM (inactive) | 92.3 µM (inactive) | > 100 µM (inactive) | 56.2 µM (inactive) | 91.2 µM (inactive) | > 100 |
